Measured values as given in patent US9468661B2, “Pyrrolidine derivatives and their use as complement pathway modulators” (priority 2012, dated 2016).

Each molecule was assayed against human factor D (Homo sapiens (Human), UniProt P00746) (assay: biochemical). Conditions: Factor D inhibition data using Method 1; recombinant human factor D 10 nM, substrate Z-Lys-thiobenzyl, fluorescence; read-out: IC50.
Sequence of human factor D (P00746 26-253): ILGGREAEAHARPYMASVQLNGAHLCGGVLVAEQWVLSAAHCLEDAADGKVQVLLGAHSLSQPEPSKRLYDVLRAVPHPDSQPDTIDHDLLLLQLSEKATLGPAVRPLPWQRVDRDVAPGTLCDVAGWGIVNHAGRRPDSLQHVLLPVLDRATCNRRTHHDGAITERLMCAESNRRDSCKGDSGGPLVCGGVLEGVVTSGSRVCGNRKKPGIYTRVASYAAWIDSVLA
Type: biochemical
How it was run: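 E. coli-expressed recombinant human factor D (10 nM) was preincubated with compound for 1 h at room temperature in 0.1 M Hepes pH 7.5, 1 mM MgCl2, 1 M NaCl, 0.05% CHAPS. Fluorescence (ex 485/em 535 nm) was read after adding Z-Lys-thiobenzyl (200 μM) and 2,4-dinitrobenzenesulfonyl-fluoresceine (25 μM); IC50 came from percent inhibition versus concentration.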
`CC(=O)c1nn(CC(=O)N2[C@@H]3C[C@@H]3C[C@H]2C(=O)NC[C@H]2CC2(Cl)Cl)c2ccc(OC(C)c3ncccn3)cc12` (stereo partly drawn) [Example 100, (1R,3S,5R)-2-{2-[3-Acetyl-5-(1-pyrimidin-2-yl-ethoxy)-indazol-1-yl]-acetyl}-2-aza-bicyclo[3.1.0]hexane-3-carboxylic acid ((R)-2,2-dichloro-cyclopropylmethyl)-amide] showed an IC50 of 158 nM.
Work on `CC(=O)c1nn(CC(=O)N2[C@@H]3C[C@@H]3C[C@H]2C(=O)NCC2CCCCC2(C)C)c2cnccc12` (single isomer, unassigned; dia 2) [Example 22] yielded an IC50 of 1190 nM.
`CC1CCCC(CNC(=O)[C@@H]2C[C@H]3C[C@H]3N2C(=O)Cn2nc(C(N)=O)c3ccncc32)C1` (single isomer, unassigned; dia 2) [Example 116] was tested, and the IC50 was 445 nM.
Molecule `CC(=O)c1nn(CC(=O)N2[C@@H]3C[C@@H]3C[C@H]2C(=O)NCC2CCCC(C)C2)c2cnccc12` (single isomer, unassigned; dia 2) [Example 120] has an IC50 of 70 nM.
For `CC(=O)c1nn(CC(=O)N2[C@@H]3C[C@@H]3C[C@H]2C(=O)NC[C@H]2CC2(Cl)Cl)c2ccc(OCc3nccs3)cc12` [Example 106, (1R,3S,5R)-2-{2-[3-Acetyl-5-(thiazol-2-ylmethoxy)-indazol-1-yl]-acetyl}-2-aza-bicyclo[3.1.0]hexane-3-carboxylic acid ((R)-2,2-dichloro-cyclopropylmethyl)-amide], the IC50 was 5 nM.
`CC(=O)c1nn(CC(=O)N2[C@@H]3C[C@@H]3C[C@H]2C(=O)NCC2CC3(CC3)C2)c2cnccc12` [Example 8, (1R,3S,5R)-2-[2-(3-Acetyl-pyrazolo[3,4-c]pyridin-1-yl)-acetyl]-2-aza-bicyclo[3.1.0] hexane-3-carboxylic acid (spiro[2.3]hex-5-ylmethyl)-amide] gave an IC50 of 498 nM.
With `C[C@@H](NC(=O)[C@@H]1C[C@H]2C[C@H]2N1C(=O)Cn1nc(C(N)=O)c2ccccc21)C1CCCCC1` [Example 54, 1-{2-[(1R,3S,5R)-3-((R)-1-Cyclohexyl-ethylcarbamoyl)-2-aza-bicyclo[3.1.0]hex-2-yl]-2-oxo-ethyl}-1H-indazole-3-carboxylic acid amide] the IC50 was 64 nM.
For `CC(=O)c1nn(CC(=O)N2[C@@H]3C[C@@H]3C[C@H]2C(=O)N[C@H](C)[C@H]2CC2(Cl)Cl)c2ccc(OCc3ccn(C)n3)cc12` [Example 66, (1R,3S,5R)-2-{2-[3-Acetyl-5-(1-methyl-1H-pyrazol-3-ylmethoxy)-indazol-1-yl]-acetyl}-2-aza-bicyclo[3.1.0]hexane-3-carboxylic acid [(R)-1-((R)-2,2-dichloro-cyclopropyl)-ethyl]-amide], the IC50 was 4 nM.
`CC(=O)c1nn(CC(=O)N2[C@@H]3C[C@@H]3C[C@H]2C(=O)NCC2CCC(C)(C)CC2)c2cnccc12` [Example 4, (1R,3S,5R)-2-[2-(3-Acetyl-pyrazolo[3,4-c]pyridin-1-yl)-acetyl]-2-aza-bicyclo[3.1.0] hexane-3-carboxylic acid (4,4-dimethyl-cyclohexylmethyl)-amide] showed an IC50 of 955 nM.
For `NC(=O)n1cc(NC(=O)N2[C@@H]3C[C@@H]3C[C@H]2C(=O)NCC2CC=CCC2)c2ccccc21` (stereo partly drawn) [Example 26, (1R,3S,5R)-2-Aza-bicyclo[3.1.0]hexane-2,3-dicarboxylic acid 2-[(1-carbamoyl-1H-indol-3-yl)-amide] 3-[(cyclohex-3-enylmethyl)-amide]], the IC50 was 305 nM.
`C[C@@H](NC(=O)[C@@H]1C[C@H]2C[C@H]2N1C(=O)Cn1nc(C(N)=O)c2ccc(Cl)cc21)[C@H]1CC1(Cl)Cl` [Example 49, 6-Chloro-1-(2-{(1R,3S,5R)-3-[(R)-1-((R)-2,2-dichloro-cyclopropyl)-ethylcarbamoyl]-2-aza-bicyclo[3.1.0]hex-2-yl}-2-oxo-ethyl)-1H-indazole-3-carboxylic acid amide] showed an IC50 of 4 nM.
With `CC1(C)[C@H](CNC(=O)[C@@H]2C[C@H]3C[C@H]3N2C(=O)Nc2cn(C(N)=O)c3ccccc23)C1(Cl)Cl` [Example 27, (1R,3S,5R)-2-Aza-bicyclo[3.1.0]hexane-2,3-dicarboxylic acid 2-[(1-carbamoyl-1H-indol-3-yl)-amide] 3-[((R)-2,2-dichloro-3,3-dimethyl-cyclopropylmethyl)-amide]] the IC50 was 19 nM.
Molecule `CC(=O)c1nn(CC(=O)N2[C@@H]3C[C@@H]3C[C@H]2C(=O)N[C@H](C)[C@H]2CC2(Cl)Cl)c2cnccc12` [Example 47, (1R,3S,5R)-2-[2-(3-Acetyl-pyrazolo[3,4-c]pyridin-1-yl)-acetyl]-2-aza-bicyclo[3.1.0] hexane-3-carboxylic acid [(R)-1-((R)-2,2-dichloro-cyclopropyl)-ethyl]-amide] has an IC50 of 35 nM.
`CC(=O)c1nn(CC(=O)N2[C@@H]3C[C@@H]3C[C@H]2C(=O)NCC2CCCC(C)(C)C2)c2cnccc12` (single isomer, unassigned; dia 1) [Example 17] gave an IC50 of 661 nM.
Molecule `CC(=O)c1nn(CC(=O)N2[C@@H]3C[C@@H]3C[C@H]2C(=O)N[C@H](C)[C@H]2CC2(Cl)Cl)c2ccccc12` [Example 46, (1R,3S,5R)-2-[2-(3-Acetyl-indazol-1-yl)-acetyl]-2-aza-bicyclo[3.1.0]hexane-3-carboxylic acid [(R)-1-((R)-2,2-dichloro-cyclopropyl)-ethyl]-amide] has an IC50 of 12 nM.

Same assay, conditions: IC50, Factor D inhibition data using Method 1; recombinant human factor D 10 nM, substrate Z-Lys-thiobenzyl, fluorescence
In the case of `NC(=O)c1nn(CC(=O)N2[C@@H]3C[C@@H]3C[C@H]2C(=O)NC(CO)C2CC2(Cl)Cl)c2ccccc12` (single isomer, unassigned; dia 2) [Example 24], the IC50 is reported as 755 nM.
With `CC1C(CNC(=O)[C@@H]2C[C@H]3C[C@H]3N2C(=O)Cn2nc(C(N)=O)c3ccncc32)C1(Cl)Cl` (single isomer, unassigned; dia 1) [Example 79, 1-(2-{(1R,3S,5R)-3-[((1R,3S) or (1S,3R)-2,2-Dichloro-3-methyl-cyclopropylmethyl)-carbamoyl]-2-aza-bicyclo[3.1.0]hex-2-yl}-2-oxo-ethyl)-1H-pyrazolo[3,4-c]pyridine-3-carboxylic acid amide-Dia 1] the IC50 was 229 nM.
Work on `CC1CCC(CNC(=O)[C@@H]2C[C@H]3C[C@H]3N2C(=O)Cn2nc(C(N)=O)c3ccccc32)C1` (single isomer, unassigned; dia 1) [Example 89] yielded an IC50 of 74 nM.
`CC(=O)c1nn(CC(=O)N2[C@@H]3C[C@@H]3C[C@H]2C(=O)NCC2C(C)C2(Cl)Cl)c2ccc(OCc3ncccn3)cc12` (single isomer, unassigned; dia 1) [Example 108, (1R,3S,5R)-2-{2-[3-Acetyl-5-(pyrimidin-2-ylmethoxy)-indazol-1-yl]-acetyl}-2-aza-bicyclo[3.1.0] hexane-3-carboxylic acid ((1R,3S) or (1S,3R)-2,2-dichloro-3-methyl-cyclopropylmethyl)-amide-Dia 1] was tested, and the IC50 was 27 nM.
Work on `CC1C(CNC(=O)[C@@H]2C[C@H]3C[C@H]3N2C(=O)Cn2nc(C(N)=O)c3ccncc32)C1(Cl)Cl` (single isomer, unassigned; dia 2) [Example 82, 1-(2-{(1R,3S,5R)-3-[((1R,3R) or (1S,3S)-2,2-Dichloro-3-methyl-cyclopropylmethyl)-carbamoyl]-2-aza-bicyclo[3.1.0]hex-2-yl}-2-oxo-ethyl)-1H-pyrazolo[3,4-c]pyridine-3-carboxylic acid amide-Dia 2] yielded an IC50 of 85 nM.
